Reference: patent US8440652B2, “MST1 kinase inhibitors and methods of their use” (Lexicon Pharmaceuticals, Inc., priority 2011, dated 2013)
Where two headings read alike, the source gives them in different places.

Target: T1, MST1 (Homo sapiens, UniProt Q13043)
T1 sequence (Q13043 1-487): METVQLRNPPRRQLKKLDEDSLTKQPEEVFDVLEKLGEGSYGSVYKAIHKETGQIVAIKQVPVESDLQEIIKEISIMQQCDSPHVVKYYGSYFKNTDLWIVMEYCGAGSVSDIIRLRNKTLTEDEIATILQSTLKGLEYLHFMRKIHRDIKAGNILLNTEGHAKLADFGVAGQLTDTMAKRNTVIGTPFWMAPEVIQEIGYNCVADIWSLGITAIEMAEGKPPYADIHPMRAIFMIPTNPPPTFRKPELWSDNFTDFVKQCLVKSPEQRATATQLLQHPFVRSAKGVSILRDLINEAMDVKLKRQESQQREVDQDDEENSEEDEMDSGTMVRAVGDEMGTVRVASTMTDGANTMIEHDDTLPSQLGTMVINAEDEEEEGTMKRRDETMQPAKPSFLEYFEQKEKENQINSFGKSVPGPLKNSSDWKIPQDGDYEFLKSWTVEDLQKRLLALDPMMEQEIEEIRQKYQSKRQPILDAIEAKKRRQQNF
Assay: In vitro measurement of MST1 inhibition (Z′-Lyte kinase assay)
Type: biochemical

[1] = 1 μM ATP, read-out: IC50 (μM) 1 μM ATP
[2] = 50 μM ATP, read-out: IC50 (μM) 50 μM ATP

Row | IC50 [1] | IC50 [2] | SMILES
1 | < 0.01 µM | < 0.01 µM | Cc1cc(-c2cnc(N)c(-c3ccc4c(c3)C(C)(C)CNC4=O)n2)ccc1S(=O)(=O)NC1CC1 [4-(5-amino-6-(4,4-dimethyl-1-oxo-1,2,3,4-tetrahydroisoquinolin-6-yl)pyrazin-2-yl)-N-cyclopropyl-2-methylbenzenesulfonamide]
2 | < 0.01 µM | < 0.01 µM | CN(C1CC1)S(=O)(=O)c1ccc(-c2cnc(N)c(-c3ccc4c(c3)C(C)(C)CNC4=O)n2)cc1 [4-(5-amino-6-(4,4-dimethyl-1-oxo-1,2,3,4-tetrahydroisoquinolin-6-yl)pyrazin-2-yl)-N-cyclopropyl-N-methylbenzenesulfonamide]
3 | < 0.01 µM | < 0.01 µM | CC1(C)CNC(=O)c2ccc(-c3nc(-c4ccc(S(=O)(=O)NC5CC5)cc4)cnc3N)cc21 [4-(5-amino-6-(4,4-dimethyl-1-oxo-1,2,3,4-tetrahydroisoquinolin-6-yl)pyrazin-2-yl)-N-cyclopropylbenzenesulfonamide]
4 | < 0.01 µM | < 0.01 µM | CN(C1CC1)S(=O)(=O)c1ccc(-c2cnc(N)c(-c3ccc4c(O)ncc(Br)c4c3)n2)cc1 [4-(5-amino-6-(4-bromo-1-hydroxyisoquinolin-6-yl)pyrazin-2-yl)-N-cyclopropyl-N-methylbenzenesulfonamide]
5 | < 0.01 µM | < 0.01 µM | CN(C1CC1)S(=O)(=O)c1ccc(-c2cnc(N)c(-c3ccc4c(c3)NCCNC4=O)n2)cc1 [4-(5-amino-6-(5-oxo-2,3,4,5-tetrahydro-1H-benzo[e][1,4]diazepin-8-yl)pyrazin-2-yl)-N-cyclopropyl-N-methylbenzenesulfonamide]
6 | < 0.01 µM | < 0.01 µM | Nc1ncc(-c2ccc(S(=O)(=O)NC3CC3)cc2)nc1-c1ccc2c(c1)NCCNC2=O [4-(5-amino-6-(5-oxo-2,3,4,5-tetrahydro-1H-benzo[e][1,4]diazepin-8-yl)pyrazin-2-yl)-N-cyclopropylbenzenesulfonamide]
7 | < 0.05 µM | < 0.01 µM | Cc1cc(-c2cnc(N)c(-c3ccc4c(c3)OCCNC4=O)n2)ccc1S(=O)(=O)NC1CC1 [4-(5-amino-6-(5-oxo-2,3,4,5-tetrahydrobenzo[f][1,4]oxazepin-8-yl)pyrazin-2-yl)-N-cyclopropyl-2-methylbenzenesulfonamide]
8 | < 0.01 µM | < 0.01 µM | CN(C1CC1)S(=O)(=O)c1ccc(-c2cnc(N)c(-c3ccc4c(c3)OCCNC4=O)n2)cc1 [4-(5-amino-6-(5-oxo-2,3,4,5-tetrahydrobenzo[f][1,4]oxazepin-8-yl)pyrazin-2-yl)-N-cyclopropyl-N-methylbenzenesulfonamide]
9 | < 0.01 µM | < 0.01 µM | Nc1ncc(-c2ccc(S(=O)(=O)NC3CC3)cc2)nc1-c1ccc2c(c1)OCCNC2=O [4-(5-amino-6-(5-oxo-2,3,4,5-tetrahydrobenzo[f][1,4]oxazepin-8-yl)pyrazin-2-yl)-N-cyclopropylbenzenesulfonamide]
10 | – | < 0.05 µM | Nc1ncc(-c2ccc(S(=O)(=O)NC3CC3)cc2)nc1-c1ncc(-c2ccccc2)[nH]1 [4-(5-amino-6-(5-phenyl-1H-imidazol-2-yl)pyrazin-2-yl)-N-cyclopropylbenzenesulfonamide]
11 | < 0.01 µM | < 0.01 µM | CN(C1CC1)S(=O)(=O)c1ccc(-c2cnc(N)c(-c3cc4c(cn3)C(=O)NCC4)n2)cc1 [4-(5-amino-6-(8-oxo-5,6,7,8-tetrahydro-2,7-naphthyridin-3-yl)pyrazin-2-yl)-N-cyclopropyl-N-methylbenzenesulfonamide]
12 | < 0.01 µM | < 0.01 µM | Nc1ncc(-c2ccc(S(=O)(=O)NC3CC3)cc2)nc1-c1cc2c(cn1)C(=O)NCC2 [4-(5-amino-6-(8-oxo-5,6,7,8-tetrahydro-2,7-naphthyridin-3-yl)pyrazin-2-yl)-N-cyclopropylbenzenesulfonamide]
13 | < 0.01 µM | < 0.01 µM | N#Cc1ccc(-c2cnc(N)c(-c3cc4c(cn3)C(=O)NCC4)n2)cc1 [4-(5-amino-6-(8-oxo-5,6,7,8-tetrahydro-2,7-naphthyridin-3-yl)pyrazin-2-yl)benzonitrile]
14 | < 0.15 µM | < 0.05 µM | CN(C1CC1)S(=O)(=O)c1ccc(-c2cnc(N)c(C#Cc3ccnc(O)c3)n2)cc1 [4-(5-amino-6-((2-hydroxypyridin-4-yl)ethynyl)pyrazin-2-yl)-N-cyclopropyl-N-methylbenzenesulfonamide]
15 | < 0.05 µM | < 0.01 µM | CC(=O)N1CC(C)(C)c2cc(-c3nc(-c4ccc(S(=O)(=O)N(C)C5CC5)cc4)cnc3N)ccc21 [4-(6-(1-acetyl-3,3-dimethylindolin-5-yl)-5-aminopyrazin-2-yl)-N-cyclopropyl-N-methylbenzenesulfonamide]
16 | < 0.05 µM | < 0.01 µM | CN(C1CC1)S(=O)(=O)c1ccc(-c2cc(-c3ccc4c(c3)CCNC4=O)c(N)nn2)cc1 [4-(6-amino-5-(1-oxo-1,2,3,4-tetrahydroisoquinolin-6-yl)pyridazin-3-yl)-N-cyclopropyl-N-methylbenzenesulfonamide]
17 | < 0.01 µM | < 0.01 µM | Nc1ncc(-c2ccc(S(=O)(=O)NC3CC3)c(Cl)c2)cc1-c1ccc2c(c1)CCNC2=O [4-(6-amino-5-(1-oxo-1,2,3,4-tetrahydroisoquinolin-6-yl)pyridin-3-yl)-2-chloro-N-cyclopropylbenzenesulfonamide]
18 | < 0.05 µM | < 0.01 µM | Nc1ncc(-c2ccc(S(=O)(=O)N(CC(F)(F)F)C3CCC3)cc2)cc1-c1ccc2c(c1)CCNC2=O [4-(6-amino-5-(1-oxo-1,2,3,4-tetrahydroisoquinolin-6-yl)pyridin-3-yl)-N-cyclobutyl-N-(2,2,2-trifluoroethyl)benzenesulfonamide]
19 | < 0.01 µM | < 0.01 µM | Nc1ncc(-c2ccc(S(=O)(=O)NC3CCC3)cc2)cc1-c1ccc2c(c1)CCNC2=O [4-(6-amino-5-(1-oxo-1,2,3,4-tetrahydroisoquinolin-6-yl)pyridin-3-yl)-N-cyclobutylbenzenesulfonamide]
20 | < 0.01 µM | < 0.01 µM | Nc1ncc(-c2ccc(S(=O)(=O)NC3CC3)c(F)c2)cc1-c1ccc2c(c1)CCNC2=O [4-(6-amino-5-(1-oxo-1,2,3,4-tetrahydroisoquinolin-6-yl)pyridin-3-yl)-N-cyclopropyl-2-fluorobenzenesulfonamide]
21 | < 0.01 µM | < 0.01 µM | Cc1cc(-c2cnc(N)c(-c3ccc4c(c3)CCNC4=O)c2)ccc1S(=O)(=O)N(C)C1CC1 [4-(6-amino-5-(1-oxo-1,2,3,4-tetrahydroisoquinolin-6-yl)pyridin-3-yl)-N-cyclopropyl-N,2-dimethylbenzenesulfonamide]
22 | < 0.01 µM | < 0.01 µM | Nc1ncc(-c2ccc(S(=O)(=O)NC3CC3)cc2)cc1-c1ccc2c(c1)CCNC2=O [4-(6-amino-5-(1-oxo-1,2,3,4-tetrahydroisoquinolin-6-yl)pyridin-3-yl)-N-cyclopropylbenzenesulfonamide]
23 | < 0.01 µM | < 0.01 µM | CCN(C)S(=O)(=O)c1ccc(-c2cnc(N)c(-c3ccc4c(c3)CCNC4=O)c2)cc1 [4-(6-amino-5-(1-oxo-1,2,3,4-tetrahydroisoquinolin-6-yl)pyridin-3-yl)-N-ethyl-N-methylbenzenesulfonamide]
24 | < 0.01 µM | < 0.01 µM | CN(C1CC1)S(=O)(=O)c1ccc(-c2cnc(N)c(-c3ccc4c(=O)[nH]ccc4c3)c2)cc1 [4-(6-amino-5-(1-oxo-1,2-dihydroisoquinolin-6-yl)pyridin-3-yl)-N-cyclopropyl-N-methylbenzenesulfonamide]
